Source: patent US20020137929A1, “1 - (3-heterocyclylphenyl) isothiourea, -isourea, -guanidine and -amidine herbicidal agents” (Intellectual Property Department, BASF Aktiengesellschaft, priority 1998, published 2002)

Tests used:
ABUTH (Velvetleaf) = assay: Postemergence herbicidal evaluation; type: in vivo, Abutilon theophrasti; conditions: postemergence
Procedure, shortened: (§1)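 Two-week seedlings sprayed postemergence at 40 psi; formulation: 1:1 acetone/water, 0.5% TWEEN 20; application ≈0.0156–0.500 kg/ha. Greenhouse grow-out, then 0–9 visual scoring at 4–5 weeks.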

GALAP (Galium) = assay: Postemergence herbicidal evaluation; type: in vivo, Galium aparine; conditions: postemergence
Procedure, shortened: as §1

ECHCG (Barnyardgrass) = assay: Postemergence herbicidal evaluation; type: in vivo, Echinochloa crus-galli; conditions: postemergence
Procedure, shortened: as §1

SETVI (Foxtail, Green) = assay: Postemergence herbicidal evaluation; type: in vivo, Setaria viridis; conditions: postemergence
Procedure, shortened: as §1

ORYSAT (Rice, Tebonnet) = assay: Postemergence herbicidal evaluation; type: in vivo, Oryza sativa, (L.) Tebonnet; conditions: postemergence
Procedure, shortened: as §1

[1] = tested on: TRZAWR (Wheat, Winter, cv Riband); assay: Preemergence herbicidal evaluation; type: in vivo, Triticum aestivum; conditions: rated 4-5 weeks after treatment
Procedure, shortened: (§2)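 Each species is sown separately in potting soil over roughly an inch of soil before any emergence. The soil surface then receives an aqueous acetone spray delivering about 0.0156 to 0.500 kg/ha of compound. After four to five weeks, injury is scored from 0 to 9 relative to a control.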

ZEAMX (Corn, Field) = assay: Preemergence herbicidal evaluation; type: in vivo, Zea mays; conditions: rated 4-5 weeks after treatment
Procedure, shortened: as §2

[2] = tested on: ECHORC (Watergrass (Calif.)); assay: Preemergence weed control under flooded paddy conditions; type: in vivo, Echinochloa oryzoides; conditions: rated 3-4 weeks after treatment
Procedure, shortened: (§3)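 Visual injury scored 0-9 against control three to four weeks post-treatment, greenhouse-grown. Application: acetone/water (50/50) solutions dosed directly into flood water (1.5-3 cm over silt loam, planted top 0.5 cm), roughly 0.0313 to 0.500 kg/ha active ingredient.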

CYPIR (Rice Flatsedge) [3] = assay: as above; type: in vivo, Cyperus iria; conditions: rated 3-4 weeks after treatment
Procedure, shortened: as §3

MOOVA (Monochoria) = assay: as above; type: in vivo, Monochoria vaginalis; conditions: rated 3-4 weeks after treatment
Procedure, shortened: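 Silt loam, seeds in top 0.5 cm; flood held 1.5-3 cm; test cpd as acetone/water 50/50 into flood water, ~0.0313-0.500 kg/ha a.i.; greenhouse 3-4 wk; visual 0-9 score vs control.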

CYPIR (Rice Flatsedge) [4] = assay: Postemergence weed control under flooded paddy conditions; type: in vivo, Cyperus iria; conditions: postemergence weeds, 3-4 weeks after treatment
Procedure, shortened: (§4)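 Injury ratings (0–9 scale covering stand, vigor, malformation, size, chlorosis and overall appearance versus control) were made three to four weeks after treatment. Test material, about 0.0313 to 0.500 kg/ha a.i. in 50/50 v/v aqueous/acetone, was added to flood water 1.5 to 3 cm deep over 3 to 5 cm weeds and 1.5 to 2.5 leaf rice.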

CYPSE (Flatsedge) = assay: as above; type: in vivo, Cyperus serotinus; conditions: postemergence weeds, 3-4 weeks after treatment
Procedure, shortened: as §4

[5] = tested on: SAGPY (Arrowhead (Pygmaea)); assay: as above; type: in vivo, Sagittaria pygmaea; conditions: postemergence weeds, 3-4 weeks after treatment
Procedure, shortened: as §4

Structure (SMILES): CCC1SC(=Nc2cc(N3C(=O)C4=C(CCCC4)C3=O)c(F)cc2Cl)N(C)C1=O (stereo not drawn) [Compound 6, N-{4-chloro-5-[(5-ethyl-3-methyl-4-oxo-2-thiazolidinylidene)amino]-2-fluorophenyl}-1-cyclohexene-1,2-dicarboximide]
- ABUTH herbicidal rating (ABUTH (Velvetleaf); rate 0.0157 kg/ha): 7.0
- ABUTH herbicidal rating (ABUTH (Velvetleaf); rate 0.0313 kg/ha): 8.0
- ABUTH herbicidal rating (ABUTH (Velvetleaf); rate 0.0625 kg/ha): 8.0
- ABUTH herbicidal rating (ABUTH (Velvetleaf); rate 0.1250 kg/ha): 9.0
- ABUTH herbicidal rating (ABUTH (Velvetleaf); rate 0.2500 kg/ha): 9.0
- ABUTH herbicidal rating (ABUTH (Velvetleaf); rate 0.5000 kg/ha): 9.0
- GALAP herbicidal rating (GALAP (Galium); rate 0.0157 kg/ha): 0.0
- GALAP herbicidal rating (GALAP (Galium); rate 0.0313 kg/ha): 0.0
- GALAP herbicidal rating (GALAP (Galium); rate 0.0625 kg/ha): 0.0
- GALAP herbicidal rating (GALAP (Galium); rate 0.1250 kg/ha): 2.0
- GALAP herbicidal rating (GALAP (Galium); rate 0.2500 kg/ha): 7.0
- GALAP herbicidal rating (GALAP (Galium); rate 0.5000 kg/ha): 9.0
- ECHCG herbicidal rating (ECHCG (Barnyardgrass); rate 0.0157 kg/ha): 0.0
- ECHCG herbicidal rating (ECHCG (Barnyardgrass); rate 0.0313 kg/ha): 0.0
- ECHCG herbicidal rating (ECHCG (Barnyardgrass); rate 0.0625 kg/ha): 0.0
- ECHCG herbicidal rating (ECHCG (Barnyardgrass); rate 0.1250 kg/ha): 0.0
- ECHCG herbicidal rating (ECHCG (Barnyardgrass); rate 0.2500 kg/ha): 1.0
- ECHCG herbicidal rating (ECHCG (Barnyardgrass); rate 0.5000 kg/ha): 2.0
- SETVI herbicidal rating (SETVI (Foxtail, Green); rate 0.0157 kg/ha): 0.0
- SETVI herbicidal rating (SETVI (Foxtail, Green); rate 0.0313 kg/ha): 0.0
- SETVI herbicidal rating (SETVI (Foxtail, Green); rate 0.0625 kg/ha): 0.0
- SETVI herbicidal rating (SETVI (Foxtail, Green); rate 0.1250 kg/ha): 2.0
- SETVI herbicidal rating (SETVI (Foxtail, Green); rate 0.2500 kg/ha): 2.0
- SETVI herbicidal rating (SETVI (Foxtail, Green); rate 0.5000 kg/ha): 2.0
- ORYSAT herbicidal rating (ORYSAT (Rice, Tebonnet); rate 0.0157 kg/ha): 2.5
- ORYSAT herbicidal rating (ORYSAT (Rice, Tebonnet); rate 0.0313 kg/ha): 2.5
- ORYSAT herbicidal rating (ORYSAT (Rice, Tebonnet); rate 0.0625 kg/ha): 2.5
- ORYSAT herbicidal rating (ORYSAT (Rice, Tebonnet); rate 0.1250 kg/ha): 2.5
- ORYSAT herbicidal rating (ORYSAT (Rice, Tebonnet); rate 0.2500 kg/ha): 2.5
- ORYSAT herbicidal rating (ORYSAT (Rice, Tebonnet); rate 0.5000 kg/ha): 2.5
- TRZAWR preemergence herbicidal rating ([1]; rate 0.1250 kg/ha): 0.0
- TRZAWR preemergence herbicidal rating ([1]; rate 0.2500 kg/ha): 0.0
- TRZAWR preemergence herbicidal rating ([1]; rate 0.5000 kg/ha): 0.0
- ZEAMX preemergence herbicidal rating (ZEAMX (Corn, Field); rate 0.1250 kg/ha): 0.0
- ZEAMX preemergence herbicidal rating (ZEAMX (Corn, Field); rate 0.2500 kg/ha): 0.0
- ZEAMX preemergence herbicidal rating (ZEAMX (Corn, Field); rate 0.5000 kg/ha): 0.0
- Herbicidal rating ECHORC ([2]; 0.0313 kg/ha): 0.0
- Herbicidal rating ECHORC ([2]; 0.0625 kg/ha): 0.0
- Herbicidal rating ECHORC ([2]; 0.1250 kg/ha): 2.0
- Herbicidal rating ECHORC ([2]; 0.2500 kg/ha): 7.0
- Herbicidal rating ECHORC ([2]; 0.5000 kg/ha): 7.0
- Herbicidal rating CYPIR (CYPIR (Rice Flatsedge) [3]; 0.0313 kg/ha): 0.0
- Herbicidal rating CYPIR (CYPIR (Rice Flatsedge) [3]; 0.0625 kg/ha): 2.0
- Herbicidal rating CYPIR (CYPIR (Rice Flatsedge) [3]; 0.1250 kg/ha): 4.0
- Herbicidal rating CYPIR (CYPIR (Rice Flatsedge) [3]; 0.2500 kg/ha): 6.0
- Herbicidal rating CYPIR (CYPIR (Rice Flatsedge) [3]; 0.5000 kg/ha): 7.0
- Herbicidal rating MOOVA (MOOVA (Monochoria); 0.0313 kg/ha): 2.0
- Herbicidal rating MOOVA (MOOVA (Monochoria); 0.0625 kg/ha): 8.0
- Herbicidal rating MOOVA (MOOVA (Monochoria); 0.1250 kg/ha): 8.0
- Herbicidal rating MOOVA (MOOVA (Monochoria); 0.2500 kg/ha): 9.0
- Herbicidal rating MOOVA (MOOVA (Monochoria); 0.5000 kg/ha): 9.0
- Herbicidal rating CYPIR (CYPIR (Rice Flatsedge) [4]; rate 0.0313 kg/ha): 0.0
- Herbicidal rating CYPIR (CYPIR (Rice Flatsedge) [4]; rate 0.0625 kg/ha): 1.0
- Herbicidal rating CYPIR (CYPIR (Rice Flatsedge) [4]; rate 0.1250 kg/ha): 2.0
- Herbicidal rating CYPIR (CYPIR (Rice Flatsedge) [4]; rate 0.2500 kg/ha): 3.0
- Herbicidal rating CYPIR (CYPIR (Rice Flatsedge) [4]; rate 0.5000 kg/ha): 3.5
- Herbicidal rating CYPSE (CYPSE (Flatsedge); rate 0.0313 kg/ha): 0.0
- Herbicidal rating CYPSE (CYPSE (Flatsedge); rate 0.0625 kg/ha): 0.0
- Herbicidal rating CYPSE (CYPSE (Flatsedge); rate 0.1250 kg/ha): 0.0
- Herbicidal rating CYPSE (CYPSE (Flatsedge); rate 0.2500 kg/ha): 0.0
- Herbicidal rating CYPSE (CYPSE (Flatsedge); rate 0.5000 kg/ha): 0.0
- Herbicidal rating SAGPY ([5]; rate 0.0313 kg/ha): 0.0
- Herbicidal rating SAGPY ([5]; rate 0.0625 kg/ha): 0.0
- Herbicidal rating SAGPY ([5]; rate 0.1250 kg/ha): 0.0
- Herbicidal rating SAGPY ([5]; rate 0.2500 kg/ha): 0.0
- Herbicidal rating SAGPY ([5]; rate 0.5000 kg/ha): 0.0
